Experimental data: patent publication EP4603105A1, “PHARMACEUTICAL COMPOSITION CONTAINING CYCLIC COMPOUND HAVING SELECTIVE KRAS INHIBITORY EFFECT AGAINST HRAS AND NRAS” (CHUGAI SEIYAKU KABUSHIKI KAISHA, priority 2022, dated 2024)

Legend:
[1] = tested on: human lung cancer strain NCI-H441; type: cell-based
Procedure, shortened: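 Proliferation was scored by […] measured after the reagent was added to cultures kept at 37°C in 5% carbon dioxide.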

HRAS wild-type protein = HRAS wild-type protein (Homo sapiens, UniProt P01112); test: Binding to HRAS by surface plasmon resonance (SPR), KD and KD ratio to KRAS; conditions: ratio of KD for HRAS wild-type protein to KD for KRAS
Chain of HRAS wild-type protein (P01112 whole entry): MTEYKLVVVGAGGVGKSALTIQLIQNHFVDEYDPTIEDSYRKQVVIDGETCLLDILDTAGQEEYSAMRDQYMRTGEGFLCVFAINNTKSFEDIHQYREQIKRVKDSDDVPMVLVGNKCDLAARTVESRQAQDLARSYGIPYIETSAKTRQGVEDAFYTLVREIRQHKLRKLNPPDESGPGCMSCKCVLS
Procedure, shortened: (§1)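 Single-cycle kinetics on GDP-loaded biotin-Avi RAS captured to ~100–300 RU; 75 s ascending injections, 100 µL/min, 30°C. HBS pH 7.4 + 10 mM MgCl2/10 µM GDP/4% DMSO. 1:1 fit, KD.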

[2] = molecular target: GDP-bound NRAS wild-type protein (Homo sapiens, UniProt P01111); test: Binding to NRAS by surface plasmon resonance (SPR), KD and KD ratio to KRAS; conditions: ratio of KD for GDP-bound NRAS wild-type protein to KD for KRAS
Chain of GDP-bound NRAS wild-type protein (P01111 whole entry): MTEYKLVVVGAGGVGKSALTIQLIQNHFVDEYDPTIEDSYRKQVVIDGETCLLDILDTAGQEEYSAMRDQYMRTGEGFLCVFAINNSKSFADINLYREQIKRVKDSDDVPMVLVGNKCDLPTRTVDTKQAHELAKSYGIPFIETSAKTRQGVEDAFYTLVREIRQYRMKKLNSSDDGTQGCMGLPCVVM
Procedure, shortened: as §1

SMILES | IC50 [1] [nM] | HRAS /KRAS (HRAS wild-type protein) | NRAS /KRAS [2]
CCC[C@H]1C(=O)N[C@@H](C2CCCC2)C(=O)N(C)CC(=O)N(C)[C@H]2C/C=C\CCN(C2=O)[C@@H](Cc2ccc(C(F)(F)F)cc2)C(=O)N(C)CC(=O)N[C@@H](CCc2ccc(C(F)(F)F)c(Cl)c2)C(=O)N2CC3(CC3)C[C@H]2C(=O)NC2(CC(C)(C)C2)C(=O)N(C)[C@@H](C2CCCC2)C(=O)N(C)[C@H](C(=O)N(C)C)CC(=O)N1C [PP2986] | 25.1 | A (a compound having 10 or more and less than 20 is denoted as A) | AA (a compound having 20 or more is denoted as AA)
CCC[C@H]1C(=O)N[C@@H]([C@@H](C)CC)C(=O)N(C)CC(=O)N(C)[C@H]2C/C=C\CCN(C2=O)[C@@H](Cc2ccc(C(F)(F)F)cc2)C(=O)N(C)CC(=O)N[C@@H](CCc2ccc(C(F)(F)F)c(Cl)c2)C(=O)N2CC3(CC3)C[C@H]2C(=O)NC2(CC(C)(C)C2)C(=O)N(C)[C@@H](CC(C)C)C(=O)N(C)[C@H](C(=O)N(C)C)CC(=O)N1C [PP2987] | 31.7 | A (a compound having 10 or more and less than 20 is denoted as A) | AA (a compound having 20 or more is denoted as AA)
CCC[C@H]1C(=O)N[C@@H](C2CCCC2)C(=O)N(C)CC(=O)N(C)[C@H]2C/C=C\CCN(C2=O)[C@@H](Cc2ccc(C)cc2)C(=O)N(C)CC(=O)N[C@@H](CCc2cc(F)c(C(F)(F)F)c(F)c2)C(=O)N2C[C@H](OCC)C[C@H]2C(=O)NC2(CC(C)(C)C2)C(=O)N(C)[C@@H](CC(C)(C)C)C(=O)N(C)[C@H](C(=O)N(C)C)CC(=O)N1C [PP2989] | 6.5 | A (a compound having 10 or more and less than 20 is denoted as A) | AA (a compound having 20 or more is denoted as AA)
CCC[C@H]1C(=O)N[C@@H](C2CCCC2)C(=O)N(C)CC(=O)N(C)[C@H]2C/C=C\CCN(C2=O)[C@@H](Cc2ccc(C)cc2)C(=O)N(C)CC(=O)N[C@@H](CCc2cc(F)c(C(F)(F)F)c(F)c2)C(=O)N2CC3(CC3)C[C@H]2C(=O)NC2(CC(C)(C)C2)C(=O)N(C)[C@@H](C2CCCC2)C(=O)N(C)[C@H](C(=O)N(C)C)CC(=O)N1C [PP2990] | 8.9 | A (a compound having 10 or more and less than 20 is denoted as A) | A (a compound having 10 or more and less than 20 is denoted as A)
CCC[C@H]1C(=O)N[C@@H](C2CCCC2)C(=O)N(C)CC(=O)N(C)[C@H]2C/C=C\CCN(C2=O)[C@@H](Cc2ccc(C)cc2)C(=O)N(C)CC(=O)N[C@@H](CCc2ccc(C(F)(F)F)c(OC)c2)C(=O)N2C[C@H](OCC)C[C@H]2C(=O)NC2(CC(C)(C)C2)C(=O)N(C)[C@@H](C2CCCC2)C(=O)N(C)[C@H](C(=O)N(C)C)CC(=O)N1C [PP2992] | 7.5 | A (a compound having 10 or more and less than 20 is denoted as A) | AA (a compound having 20 or more is denoted as AA)
CCC[C@H]1C(=O)N[C@@H]([C@@H](C)CC)C(=O)N(C)CC(=O)N(C)[C@H]2C/C=C\CCN(C2=O)[C@@H](Cc2ccc(C)cc2)C(=O)N(C)CC(=O)N[C@@H](CCc2cc(F)c(C(F)(F)F)c(F)c2)C(=O)N2C[C@H](OCC)C[C@H]2C(=O)NC2(CC(C)(C)C2)C(=O)N(C)[C@@H](CC(F)(F)F)C(=O)N(C)[C@H](C(=O)N(C)C)CC(=O)N1C [PP2993] | 14.1 | A (a compound having 10 or more and less than 20 is denoted as A) | A (a compound having 10 or more and less than 20 is denoted as A)
